Reference: paper PMC4342888, “A search for protein biomarkers links olfactory signal transduction to social immunity” (BMC Genomics, 2015)

Key:
[1] = biological target: T1, OBP21 (Apis mellifera, UniProt A0ACM8Q9Q6); experiment: biochemical; design: competitive fluorescence displacement of 2 uM 1-NPN from purified recombinant OBP (2 uM), Tris pH 7.4; conditions: IC50 against 2 uM 1-NPN
T1 construct: purified recombinant protein
T1 sequence (A0ACM8Q9Q6 17-135): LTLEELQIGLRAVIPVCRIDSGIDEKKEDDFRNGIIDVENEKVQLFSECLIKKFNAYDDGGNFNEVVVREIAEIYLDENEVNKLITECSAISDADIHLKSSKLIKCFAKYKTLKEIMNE
Method: (§1) The probe was excited at 337 nm and emission spectra were recorded between 380 and 450 nm. […] For determining binding constants, the intensity values corresponding to the maximum of fluorescence emission were plotted against free ligand concentrations. Bound ligand was evaluated from the values of fluorescence intensity assuming that the protein was 100% active, with a stoichiometry of 1:1 protein:ligand at saturation. The curves were linearized using Scatchard plots. Dissociation constants of the competitors were calculated from the corresponding IC50 values (concentrations of ligands halving the initial fluorescence value of 1-NPN), using the equation: KD = [IC50]/1 + [1-NPN]/K1-NPN, [1-NPN] being the free concentration of 1-NPN and K1-NPN being the dissociation constant of the complex Protein/1-NPN.  Figure 7 Potential ligands of OBPs. Twenty nine potential ligands were tested in a competitive binding assay for their binding to OBP16, OBP18 and OBP21. Each purified recombinant protein was mixed with the fluorescent probe N-phenyl-1-naphthylamine (1-NPN), both at the concentration of 2 μM in Tris buffer. Each mixture was titrated with a ligand and the displacement of the fluorescent probe from the complex was used to evaluate the relative dissociation constants, as described in the Methods section. Compounds with higher affinities are shown in the top panel, while compound with lower affinity are shown in the lower panel.

[2] = biological target: T2, Odorant binding protein 16 (OBP16) (Apis mellifera, UniProt A0ACM8Q9Q1); experiment: biochemical; design: competitive fluorescence displacement of 2 uM 1-NPN from purified recombinant OBP (2 uM), Tris pH 7.4; conditions: for IC50: IC50 against 2 uM 1-NPN; for Kd: KD calculated from IC50 of 1-NPN displacement
T2 construct: recombinant mature protein
T2 sequence (A0ACM8Q9Q1 17-135): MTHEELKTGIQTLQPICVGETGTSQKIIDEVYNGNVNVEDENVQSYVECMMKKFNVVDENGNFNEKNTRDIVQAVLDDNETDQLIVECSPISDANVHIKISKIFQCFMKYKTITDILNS
Method: as §1

[3] = biological target: T3, Odorant binding protein 18 (OBP18) (Apis mellifera, UniProt A0ACM8Q9Q2); experiment: biochemical; design: competitive fluorescence displacement of 2 uM 1-NPN from purified recombinant OBP (2 uM), Tris pH 7.4; conditions: for IC50: IC50 against 2 uM 1-NPN; for Kd: KD calculated from IC50 of 1-NPN displacement
T3 construct: recombinant mature protein
T3 sequence (A0ACM8Q9Q2 17-135): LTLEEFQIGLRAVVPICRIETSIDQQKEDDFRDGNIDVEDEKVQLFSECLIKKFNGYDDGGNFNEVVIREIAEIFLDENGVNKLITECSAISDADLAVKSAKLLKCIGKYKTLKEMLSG
Method: as §1

[4] = biological target: T1, OBP21; experiment: biochemical; design: competitive fluorescence displacement of 1-NPN (2 uM) from recombinant OBP, emission 380-450 nm
Method: as §1

[5] = biological target: T2, Odorant binding protein 16 (OBP16); experiment: direct fluorescence titration of purified protein
[6] = biological target: T3, Odorant binding protein 18 (OBP18); experiment: direct fluorescence titration of purified protein
[7] = biological target: T1, OBP21; experiment: direct fluorescence titration of purified protein; format: binding

| Structure (SMILES) | IC50 [1] [nM] | IC50 [2] [nM] | Kd [2] [nM] | IC50 [3] [nM] | Kd [3] [nM] | Kd [4] [nM] | Kd [5] [nM] | Kd [6] [nM] | Kd [7] [nM] |
| --- | --- | --- | --- | --- | --- | --- | --- | --- | --- |
| CC(C)CC(=O)O [3-Methylbutanoic acid] | > 20000 | 11000 | 5000 | 2500 | 1100 |  |  |  |  |
| COc1ccccc1/C=C/C=O [2-Methoxycinnamaldehyde] | 20000 | 20000 | 9200 | 3800 | 1700 | 33900 |  |  |  |
| CCCCCC(C)=O [2-Heptanone] | 20000 | 18000 | 8300 | 2400 | 1100 | 33900 |  |  |  |
| CC(C)=CCC/C(C)=C/C=O [Citral] | 16000 | 4400 | 2000 | 1600 | 700 | 27100 |  |  |  |
| OCCc1ccccc1 [2-Phenyl ethanol] | > 20000 | > 20000 |  | 2500 | 1100 |  |  |  |  |
| CC(=O)CCCCCCCC(=O)O [9-Ketodecanoic acid] | 4000 | 3500 | 1600 | 1500 | 700 | 6800 |  |  |  |
| CC(C)=CCCC(C)CC=O (stereo not shown) [Citronellal] | 8000 | 3500 | 1600 | 2500 | 1100 | 13600 |  |  |  |
| CC(C)CCCC(C)CCO (stereo not shown) [3,7-dimethyloctanol] | 2200 | 500 | 200 | 200 | 100 | 3700 |  |  |  |
| O=C/C=C/c1ccccc1 [Cinnamaldehyde] | > 20000 | 20000 | 9200 | 3400 | 1500 |  |  |  |  |
| Cc1ccccc1C=CC=O [2-Methylcinnamaldehyde] | 18000 | 7000 | 3200 | 1200 | 500 | 30500 |  |  |  |
| OCc1ccccc1 [Benzyl alcohol] | > 20000 | 9800 | 4500 | 2500 | 1100 |  |  |  |  |
| CC(=O)OCCc1ccccc1 [2-Phenylethyl acetate] | 18000 | 8000 | 3700 | 2500 | 1100 | 30500 |  |  |  |
| c1ccc(Nc2cccc3ccccc23)cc1 [1-NPN, N-phenyl-1-naphthylamine] |  |  |  |  |  |  | 1000 to 5000 | 1000 to 5000 | 1000 to 5000 |

Second part, led by results:

| IC50 [1] [nM] | IC50 [2] [nM] | Kd [2] [nM] | IC50 [3] [nM] | Kd [3] [nM] | Kd [4] [nM] | Structure (SMILES) | Kd [5] [nM] | Kd [6] [nM] | Kd [7] [nM] |
| --- | --- | --- | --- | --- | --- | --- | --- | --- | --- |
| 10000 | 700 | 300 | 300 | 100 | 16900 | CCCCCCCCCCCC(=O)O [Dodecanoic acid] |  |  |  |
| 1500 | 1800 | 800 | 1800 | 800 | 2500 | CC(=O)CC/C=C(\C)CCC=C(C)C [Geranylacetone] |  |  |  |
| 400 | 1000 | 400 | 100 | 100 | 600 | CCCCCCCC/C=C\CCCCCCCC(N)=O [Oleamide] |  |  |  |
| 5000 | 2500 | 1100 | 1900 | 800 | 8500 | COC(=O)c1ccc(O)cc1 [Methyl p-hydroxybenzoate] |  |  |  |
| > 20000 | 900 | 400 | 200 | 100 |  | CCCCCCCCCCCCCCCC(=O)OC [Methyl palmitate] |  |  |  |
| > 20000 | 18000 | 8300 | 3000 | 1300 |  | C=CC(C)(O)CCC=C(C)C (stereo not shown) [Linalool] |  |  |  |
| 300 | 900 | 400 | 100 | 40 | 400 | CCCCCCCC/C=C\CCCCCCCC(=O)O [oleic acid] |  |  |  |
| > 20000 | 1000 | 500 | 200 | 100 |  | CCCCCCCCCCCCCCCCCC(=O)OC [Methyl stearate] |  |  |  |
| > 20000 | 1100 | 500 | 300 | 100 |  | CC(C)=CCC/C(C)=C/CO [geraniol] |  |  |  |
| > 20000 | 18000 | 8300 | 3200 | 1400 |  | COc1cc(CC(=O)O)ccc1O [Homovanillic acid] |  |  |  |
| > 20000 | > 20000 |  | 2300 | 1000 |  | C=CCc1ccc(O)c(OC)c1 [Eugenol] |  |  |  |
| > 20000 | 2000 | 900 | 100 | 40 |  | CCCCC/C=C\C/C=C\CCCCCCCC(=O)OC [Methyl linoleate] |  |  |  |
| 1800 | 200 | 100 | 200 | 100 | 3100 | CC(=O)OC/C=C(\C)CCC=C(C)C [geranyl acetate] |  |  |  |
| > 20000 | 10500 | 4800 | 2700 | 1200 |  | COc1cc(CCO)ccc1O [Homovanillic alcohol] |  |  |  |
| > 20000 | 1100 | 500 | 200 | 100 |  | CCCCCCCCCCCCCCCC(=O)OCC [Ethyl palmitate] |  |  |  |
| > 20000 | 18000 | 8300 | 3600 | 1600 |  | COc1cc(/C=C/CO)ccc1O [Coniferyl alcohol] |  |  |  |
| > 20000 | 1100 | 500 | 300 | 100 |  | CCCCCCCCC(=O)O [Nonanoic acid] |  |  |  |
